Test results from patent US20070249677A1, “Treatment of Osteoarthritis and Dosing Regimen for Arzoxifene” (priority 2004, published 2007).

Experiments:
[1] = Half life of arzoxifene in laboratory animals; type: in vivo
[2] = test system: Hartley albino guinea pigs (spontaneous cartilage degeneration / osteoarthritis); assay: Guinea Pig Spontaneous Osteoarthritis Study; type: in vivo
Source text: Hartley albino guinea pigs undergo spontaneous cartilage degeneration, and they have been used as a convenient small animal model system to study osteoarthritis (OA) and have potential physiologic relevance to the OA that spontaneously develops in humans. Disease-related morphologic changes observed in the guinea pigs are similar to the histopathologic alternations in the joints of humans with OA. Other significant similarities between the OA in Hartley guinea pigs and that in humans are also known. Huebner, Collagenase 1 and Collagenase 3 Expression in a Guinea Pig Model of Osteoarthritis, 41 Arthritis Rheum. 877-890 no. 5(May 1998). The Hartley guinea pig spontaneous model can be used to study the effects of Arzoxifene on OA.
Hartley strain guinea pigs, approximately three month old males, are used for the study. (In one study, 5.5 month old males were used, as indicated by FIG. 8). The Hartley albino guinea pigs are provided ad lib access to food (Ca 1.1%, p 0.6%, Vitamin D 3400 IU/kg) and water. The guinea pigs are dosed subcutaneously with Arzoxifene at 0.03, 0.1, 0.3, and/or 0.5 mg/kg/d for about two to four months. The study generally includes 15 guinea pigs per treatment group, except for the baseline, which generally includes 10 guinea pigs. Urine and serum are to be collected at 0, 2, 4, 6, 12, and 16 weeks for biomarker evaluation. The right knee joints are harvested for histology and the left knee joint for surface osteoarthritis scoring.
The effects observed on OA lesion areas by quantitative image analyses are illustrated by the graph in FIG. 3. The Zones of the lesion in the knee joint are illustrated by FIG. 1. Osteoarthritis changes are further evaluated by histologically quantitative analyses on paraffin embedded sections. The severities of joint damage are assessed for the depth of chondrocyte lesion and loss of proteoglycan on a score 0-5 for increasing severity on each third of the cartilage surface (Animla molde of osteoarthritis, A. M. Bendele (J Musculoskel Neuron Interact 2001: 1: 363-376)). Osteophyte development also evaluated by measuring the size.

[3] = test system: postmenopausal women with osteopenia; assay: OA biomarkers on a subset of samples from the Phase 2 osteopenia study; type: in vivo, human; settings: no selection for OA
Protocol: A Phase 2, multicenter, randomized, double-blind, placebo- and raloxifene-controlled study of arzoxifene enrolled 219 postmenopausal women with osteopenia (defined as bone mineral density [BMD] t-score at the lumbar spine and/or femoral neck >−2.5 and ≦−1). The study assessed the effects of arzoxifene compared with raloxifene HCl (60 mg/day) and placebo on biochemical markers of bone metabolism, cardiovascular disease risk markers, and on overall safety.
CTXII was not evaluated as the assay is validated for urine specimens, which were not available.

[4] = Half life of arzoxifene in human patients; type: in vivo
[5] = test system: ovariectomized Sprague-Dawley rats; assay: Intermittent Dosing Analysis of Arzoxifene in Ovariectomized Rats (Prevention Model), femur QCT; type: in vivo, rat; settings: Ovx rats, 1 mg/kg oral
Protocol: Arzoxifene will be administered using several different dosing intervals for 5 weeks to 6 month-old rats, one week after ovariectomy.
Live phase: A total of about 78 female Sprague-Dawley rats (Harlan Sprague Dawley Inc) are used for this study design. 72 of the rats are ovariectomized (Ovx) at 6 months of age and 6 rats are used as sham-ovariectomized controls. Rats were maintained on a 12 hour light/dark cycle at 22° C. with ad lib access to food (TD 89222 with 0.5% Ca and 0.4% P, Teklad, Madison, Wis.) and water. Sham and Ovx controls are orally administered a vehicle of 20% hydroxy propyl-β-cyclodextrin (Aldrich Chemical Co). Arzoxifene (1 mg/kg) treated rats are dosed daily, every other day (QOD), every third day (Q3D), weekly on Monday (QW), or twice a week on Monday and Friday (M/F), as indicated. Each group contains 6 animals/grp and the treatment duration is about 5 weeks.
Analyses: Intact femora are removed and cleaned of soft-tissue and preserved in 50% ethanol/saline at 4° C. Femora are centered with respect to the QCT gantry (Research M, Stratec). A coronal scout scan of the specimen is generated first in 2 Dimension (2D) and then femora are scanned to measure bone mineral density (BMD, mg/cc), bone mineral content (BMC, mg), and cross-sectional area (mm2).

COc1ccc(-c2sc3cc(O)ccc3c2Oc2ccc(OCCN3CCCCC3)cc2)cc1 [arzoxifene]
half life [1]: consistent with a daily dosing regimen
OA progression based on OA surface area and osteophyte development ([2]; 0.5 mg/kg/d subcutaneous, one study (FIG. 8, 5.5 month old males)): did not have a statistical effect on OA progression
effect on preventing or slowing the progression of OA ([2]; Hartley guinea pigs, subcutaneous, about two to four months, OA lesion areas by image analysis (FIG. 3)): positive effect on preventing or slowing the progression of OA
OA progress: OA surface area and osteophyte development ([2]; lower doses tested (0.03, 0.1, 0.3 mg/kg/d subcutaneous), FIGS. 4-7): favorable effect on preventing or delaying the OA progress
COMP biomarker difference between placebo and arzoxifene [3]: modest but significant biomarker differences
human cartilage glycoprotein-39 (YKL-40) biomarker difference between placebo and arzoxifene [3]: modest but significant biomarker differences
half life [4]: longer than one day
loss of BMD, distal femur metaphysis by QCT ([5]; daily, about 5 weeks (FIG. 9)): prevented
loss of BMD, distal femur metaphysis by QCT ([5]; every other day (QOD), about 5 weeks (FIG. 9)): prevented
loss of BMD, distal femur metaphysis by QCT ([5]; every third day (Q3D), about 5 weeks (FIG. 9)): prevented
loss of BMD, distal femur metaphysis by QCT ([5]; twice a week Monday and Friday (M/F), about 5 weeks (FIG. 9)): prevented
loss of BMD, distal femur metaphysis by QCT ([5]; weekly on Monday (QW), about 5 weeks, QW BMD intermediate between Ovx and Sham and less than Sham (FIG. 9)): only partially efficacious
